Literature values in patent US20150025006A1, “Pharmaceutical Combinations Including Anti-Inflammatory and Antioxidant Conjugates Useful for Treating Metabolic Disorders” (Genmedica Therapeutics SL, priority 2011, published 2015).

How the values were obtained:
[1] = system: Zucker fa/fa rats or ob/ob mice; conditions: 120 mg/kg/day, subcutaneous infusion, 3-4 weeks
human diabetic patients = conditions: 4.5 g/day of salsalate

Row | SMILES | anti-diabetic effects [1] | side effects, such as tinnitus, enhanced by (human diabetic patients) [%]
1 | O=C(O)c1ccccc1O [Salicylate] | anti-diabetic effects, reduction in fasting blood glucose, and glucose tolerance improvement | –
2 | O=C(Oc1ccccc1C(=O)O)c1ccccc1O [salsalate] | – | 66
